Patent US11207385B2, “Melanocortins and methods of use thereof” (Aequus Biopharma, Inc., priority 2015, dated 2021)
Square brackets hold non-standard residues; d marks the D form. Ends that are not written are not given here. Nle = CCCC[C@H](N)C(=O)O

How the values were obtained:
MCR4 = molecular target: T1, MCR4 (Homo sapiens, UniProt P32245); test: cAMP production (LANCE cAMP assay) in CHO-MCR4 cells; format: cell-based; conditions: Cell Pool B (partially enriched for MCR expression)
T1 construct: expressed in transfected cells; host or cells: CHO (CHO-MCR4)
T1 sequence (P32245 whole entry): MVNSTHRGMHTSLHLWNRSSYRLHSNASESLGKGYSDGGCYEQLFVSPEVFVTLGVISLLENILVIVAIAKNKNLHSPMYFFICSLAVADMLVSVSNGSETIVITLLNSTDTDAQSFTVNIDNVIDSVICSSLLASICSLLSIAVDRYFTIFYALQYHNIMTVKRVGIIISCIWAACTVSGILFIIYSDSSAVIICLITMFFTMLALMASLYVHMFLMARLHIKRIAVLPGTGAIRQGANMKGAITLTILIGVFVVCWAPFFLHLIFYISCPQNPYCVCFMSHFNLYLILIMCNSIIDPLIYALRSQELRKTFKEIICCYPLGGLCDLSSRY
Method: MCR stimulation in response to polypeptides added to cell culture media was measured by cAMP production via LANCE cAMP assay (Perkin Elmer cat #AD0263).
The manufacturer's recommended protocol was followed. […] To each well was added 5 uL of cell suspension (10,000 CHO-MCR cells per well, with Alexa-labeled antibodies). The mixtures were incubated for 30 minutes at room temperature. Then, to each well was added 10 uL of Detection Mix. The mixtures were incubated for 120 minutes at room temperature. […] This process was repeated for each of CHO-MCR1, CHO-MCR2, CHO-MCR3, CHO-MCR4 and CHO-MCR5 cells.

MCR2 = molecular target: T2, MCR2 (Homo sapiens, UniProt Q01718); test: cAMP production (LANCE cAMP assay) in CHO-MCR2 cells; format: cell-based
T2 construct: expressed in transfected cells; host or cells: CHO (CHO-MCR2)
T2 sequence (Q01718 whole entry): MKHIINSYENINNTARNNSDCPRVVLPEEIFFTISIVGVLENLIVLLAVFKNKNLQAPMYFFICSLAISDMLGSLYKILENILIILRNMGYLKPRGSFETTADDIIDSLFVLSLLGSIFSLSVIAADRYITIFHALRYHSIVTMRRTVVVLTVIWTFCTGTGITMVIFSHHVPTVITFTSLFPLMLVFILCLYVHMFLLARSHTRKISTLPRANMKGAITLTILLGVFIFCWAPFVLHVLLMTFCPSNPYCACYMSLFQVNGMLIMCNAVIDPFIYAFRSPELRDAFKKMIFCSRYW
T2 sequence (Q8TCY5 whole entry partner): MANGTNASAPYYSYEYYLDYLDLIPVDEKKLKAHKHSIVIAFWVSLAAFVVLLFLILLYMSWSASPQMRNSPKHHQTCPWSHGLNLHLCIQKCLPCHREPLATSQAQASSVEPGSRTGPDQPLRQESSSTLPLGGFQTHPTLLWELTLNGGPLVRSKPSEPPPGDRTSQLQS
Description: The manufacturer's recommended protocol was followed.

[1] = tested on: murine models of gout (MSU-injected air pouch); test: Murine air pouch model of gout, neutrophil counts and IL-1β in exudate (Example 6); format: in vivo, Balb/c mice; conditions: 3 and 10 nmol/mouse sc 1 h before MSU
Method: An air pouch was formed by injecting 6 mL of sterile air using a syringe filter with a 0.22 micron air filter and 23-gauge needle subcutaneously into a shaved skin site on the back of male Balb/c mice (age 6-8 weeks) on Day 0. The wound result from the pouch was allowed to heal for 3 days without any intervention. The pouch was then re-inflated with 3 mL of sterile air on Day 3. Three days after re-inflation on Day 6, compositions described herein were administered via subcutaneous injection 1 hour prior to the administration of 30 mg monosodium urate crystals (MSU) directly into the air pouch to induce an inflammatory response. Four hours after injection of MSU, mice were anesthetized and exsanguinated. Exudate from the air pouch was collected by lavaging the air pouch of each animal with 3 ml of sterile PBS containing 10 U/ml heparin. Analyses performed on exudates include determining neutrophil counts and IL-1β cytokine concentrations. […] 10 • 3) NDP-α-MSH-linker-linker-ACTH1-24, SEQ ID NO. 23 • 4) ACTH1-24-linker-linker-NDP-α-MSH, SEQ ID NO. 26
SEQ ID NOS. […] SEQ ID NO. 23 and SEQ ID NO. […] 10 in reducing neutrophil counts and IL-1β cytokine concentrations in collected exudate, and the arrangement of SEQ ID NO. […] 23.

plasma corticosterone = test: Steroidogenic effects: corticosterone response in healthy mice (ELISA); format: in vivo, Balb/c mice; conditions: for Mean corticosterone: plasma 1 h after dosing
Method: Compositions described herein were administered to Balb/c mice to determine the half-maximal effective concentrations for induction of corticosteroids in healthy mice. Balb/c mice were divided into 13 groups of 4 animals each (Groups 1-13), and each animal was administered a composition at a dosage as indicated in Table 5.
Each animal was injected subcutaneously at 0.2 ml/mouse as in Table 5. One hour after vehicle or test compositions were administered, the mice were anesthetized and exsanguinated into pre-chilled EDTA-treated microtainer tubes (Becton-Dickinson). The whole blood was processed to plasma and assayed by ELISA for corticosterone (Enzo Life Sciences).

[2] = Cell Pool B (partially enriched for MCR expression)
[3] = Cell Pool A (partially enriched for MCR expression)

SYSMEHFRWGKPVGKKRRPVKVYPPLPEGGPEPRSDGAKPGPREGKRSYSMEHFRWGKPV [compound 42]
EC50 (MCR4): > 20 nM
EC50 (MCR2; [2]): 0.15 nM

CSCC[C@H](NC(=O)[C@H](CO)NC(=O)[C@H](Cc1ccc(O)cc1)NC(=O)[C@@H](N)CO)C(=O)N[C@@H](CCC(=O)O)C(=O)N[C@@H](Cc1c[nH]cn1)C(=O)N[C@@H](Cc1ccccc1)C(=O)N[C@@H](CCCNC(=N)N)C(=O)N[C@@H](Cc1c[nH]c2ccccc12)C(=O)NCC(=O)N[C@@H](CCCCN)C(=O)N1CCC[C@H]1C(=O)N[C@H](C(N)=O)C(C)C [compound 11]
EC50 (MCR2; Cell Pool C (optimized cell bank)): > 100 nM

SYSMEHFRWGKPVGKKRRPVKVYPELTGQRLREGDGPDGPADDGAGASYSMEHFRWGKPV [compound 43]
EC50 (MCR4): > 20 nM
EC50 (MCR2; [2]): 0.18 nM

YVMGHFRWDRFGSYSMEHFRWGKPVGKKRRPVKVYP [compound 15]
EC50 (MCR2; [3]): 5 nM

NDP-α-MSH-linker-linker-ACTH1-24 (Ac-SYS[Nle]EH[dF]RWGKPVGGGGSGGGGSSYSMEHFRWGKPVGKKRRPVKVYP) [SEQ ID NO. 23]
reducing neutrophil counts in collected exudate (comparison in words) ([1]; FIG. 8): more active than SEQ ID NO. 10
reducing IL-1β cytokine concentrations in collected exudate (comparison in words) ([1]; FIG. 9): more active than SEQ ID NO. 10

SYSMEHFRWGKPVGKKRRPVKVYPPLPEGGPEPRSDGAKPGPREGKRSYS[Nle]EH[dF]RWGKPV [compound 39]
EC50 (MCR4): 1.6 nM
EC50 (MCR2; [2]): 0.18 nM

YVMGHFRWDRFGRRNSSSSGSSGAGQSYSMEHFRWGKPVGKKRRPVKVYP [compound 14]
EC50 (MCR2; [3]): > 100 nM

SYSMEHFRWGKPVGKKRRPVKVYPELTGQRLREGDGPDGPADDGAGASYS[Nle]EH[dF]RWGKPV [compound 40]
EC50 (MCR2; [2]): 0.15 nM

YVMGHFRWDRFGKRSYSMEHFRWGKPVGKKRRPVKVYP [compound 1]
EC50 (MCR2; [3]): 26 nM

CCCC[C@H](NC(=O)[C@H](CO)NC(=O)[C@H](Cc1ccc(O)cc1)NC(=O)[C@H](CO)NC(=O)[C@H](CO)NC(=O)CNC(=O)CNC(=O)CNC(=O)CNC(=O)[C@H](CO)NC(=O)CNC(=O)CNC(=O)CNC(=O)CNC(=O)[C@@H]1CCCN1C(=O)[C@H](Cc1ccc(O)cc1)NC(=O)[C@@H](NC(=O)[C@H](CCCCN)NC(=O)[C@@H](NC(=O)[C@@H]1CCCN1C(=O)[C@H](CCCNC(=N)N)NC(=O)[C@H](CCCNC(=N)N)NC(=O)[C@H](CCCCN)NC(=O)[C@H](CCCCN)NC(=O)CNC(=O)[C@@H](NC(=O)[C@@H]1CCCN1C(=O)[C@H](CCCCN)NC(=O)CNC(=O)[C@H](Cc1c[nH]c2ccccc12)NC(=O)[C@H](CCCNC(=N)N)NC(=O)[C@H](Cc1ccccc1)NC(=O)[C@H](Cc1c[nH]cn1)NC(=O)[C@H](CCC(=O)O)NC(=O)[C@H](CCSC)NC(=O)[C@H](CO)NC(=O)[C@H](Cc1ccc(O)cc1)NC(=O)[C@@H](N)CO)C(C)C)C(C)C)C(C)C)C(=O)N[C@@H](CCC(=O)O)C(=O)N[C@@H](Cc1c[nH]cn1)C(=O)N[C@H](Cc1ccccc1)C(=O)N[C@@H](CCCNC(=N)N)C(=O)N[C@@H](Cc1c[nH]c2ccccc12)C(=O)NCC(=O)N[C@@H](CCCCN)C(=O)N1CCC[C@H]1C(=O)N[C@H](C(=O)O)C(C)C [SEQ ID NO. 26, ACTH1-24-linker-linker-NDP-α-MSH]
Fold change over baseline (corticosterone) (plasma corticosterone; 0.003 nmol/mouse sc): 0.8
Mean corticosterone (plasma corticosterone; 0.003 nmol/mouse sc): 863553 pg/mL
Fold change over baseline (corticosterone) (plasma corticosterone; 0.03 nmol/mouse sc): 1.0
Mean corticosterone (plasma corticosterone; 0.03 nmol/mouse sc): 116070 pg/mL
Fold change over baseline (corticosterone) (plasma corticosterone; 0.3 nmol/mouse sc): 1.8
Mean corticosterone (plasma corticosterone; 0.3 nmol/mouse sc): 149581 pg/mL
Fold change over baseline (corticosterone) (plasma corticosterone; 1.0 nmol/mouse sc): 3.3
Mean corticosterone (plasma corticosterone; 1.0 nmol/mouse sc): 264845 pg/mL
Fold change over baseline (corticosterone) (plasma corticosterone; 3.0 nmol/mouse sc): 3.4
Mean corticosterone (plasma corticosterone; 3.0 nmol/mouse sc): 488734 pg/mL
Fold change over baseline (corticosterone) (plasma corticosterone; 10.0 nmol/mouse sc): 4.4
Mean corticosterone (plasma corticosterone; 10.0 nmol/mouse sc): 514583 pg/mL
effect on plasma corticosterone (plasma corticosterone; 0.015, 0.15, and 1.5 μg/mouse sc): no significant effect
reduction in plasma corticosterone levels at equally active dose levels (plasma corticosterone; 3 nanomole SEQ ID NO. 26 versus 10 nanomole SEQ ID NO. 10, healthy mice): 40%
plasma corticosterone levels (significantly increased, not different from each other) (plasma corticosterone; 5.2-51.5 μg/mouse sc): ~500 ng/mL
plasma corticosterone after a single subcutaneous injection (dose response, words) (plasma corticosterone; single sc injection 0.2 ml/mouse, FIG. 14): dose-dependent increase in plasma corticosterone

YVMGHFRWDRFGRRNSSSSGSSGAGQKR [compound 9]
EC50 (MCR4): > 100 nM
EC50 (MCR2; [2]): > 100 nM
